Source: patent publication US10441564B2, “Fructose analogs and their combinations as anti-cancer agents” (priority 2016, dated 2019)
Entries after “also recorded” stand apart in the source; their conditions may differ.

Legend:
[1] = system: U937-SLC2A5 cells (overexpressing the fructose transporter SLC2A5); test: malignant proliferation of AML cells U937-SLC2A5; assay type: cell-based; conditions: 6 mM fructose or 6 mM fructose+0.75 mM glucose
[2] = system: U937-SLC2A5 cells (overexpressing the fructose transporter SLC2A5); test: colony formation of U937-SLC2A5 cells; assay type: cell-based; conditions: 6 mM fructose or 6 mM fructose+0.75 mM glucose
[3] = system: U937-SLC2A5 cells (overexpressing the fructose transporter SLC2A5); test: cell migration of U937-SLC2A5 cells; assay type: cell-based; conditions: 6 mM fructose or 6 mM fructose+0.75 mM glucose
U937 = test: proliferation of AML cells U937; assay type: cell-based
Description: (§1) In cell culture conditions with 6 mM fructose or 6 mM fructose+0.75 mM glucose, 2,5-AM could inhibit the proliferation of four AML cells, including U937, OCI-AML3, HL-60 and K562 cells.

OCI-AML3 = test: proliferation of AML cells OCI-AML3; assay type: cell-based
Description: as §1

HL-60 = test: proliferation of AML cells HL-60; assay type: cell-based
Description: as §1

K562 = test: proliferation of AML cells K562; assay type: cell-based
[4] = system: AML mice (murine leukemic cells with AML1-ETO and mutated C-KIT); test: AML model mice; assay type: in vivo, BALB/c female mice
Description: AML mice were generated using a previously reported procedure (Wang et al., 2011) with minor modifications. About 1×10^5 GFP-positive murine leukemic cells (splenic cells) with AML1-ETO and mutated C-KIT were injected into the tail vein of each sublethally irradiated (3.5 Gy), 8 week old BALB/c female mice. On day 5 after inoculation of AML cells, 2,5-AM was injected intraperitoneally at a dose of 150 mg/kg/day for continuous administration to mice. Control group AML mice were given saline injection according to the same dose and method.
chemotherapeutic drug cytarabine on the treatment of AML model mice (Ara-C) was administered intraperitoneally at a dose of 25 mg/kg/day on the third day in the AML model mice (see example 3) for 3 days after AML cell inoculation. At the same time, mice were intraperitoneally injected with 2,5 AM at a dose of 150 mg/kg/day on day 5 after AML cell inoculation, until mice were dead. (2) Ara-C alone group: In the AML model mice of Example 3, Ara-C was injected intraperitoneally at a dose of 25 mg/kg/day on the third day after AML cell inoculation for 3 days.

PANC-1 = test: fructose-induced proliferation of pancreatic cancer cells PANC-1; assay type: cell-based; conditions: 6 mM fructose culture
CFPAC-1 = test: fructose-induced proliferation of pancreatic cancer cells CFPAC-1; assay type: cell-based; conditions: 6 mM fructose culture
BxPC-3 = test: fructose-induced proliferation of pancreatic cancer cells BxPC-3; assay type: cell-based; conditions: 6 mM fructose culture
HCT-15 = test: malignant proliferation of colorectal cancer cells HCT-15; assay type: cell-based; conditions: 6 mM fructose culture
HCT-116 = test: malignant proliferation of colorectal cancer cells HCT-116; assay type: cell-based; conditions: 6 mM fructose culture
AML cells = test: fructose utilization in AML cells in vitro; assay type: cell-based; conditions: in vitro cell experiments
Text: Enhanced fructose metabolism mediated by GLUTS exacerbates the malignant phenotype of AML cells, including increased cell proliferation, enhanced colony formation, and increased mobility and infiltration of AML cells (FIG. 3A-3D). […] Additionally 2,5-AM can kill AML cells in concert with conventional chemotherapeutic agents (FIG. 7A-7G).

cancer cells = test: fructose and glucose utilization by cancer cells; assay type: cell-based
Text: The present inventors have discovered, for the first time, the important role of GLUTS-mediated fructose metabolism in the malignant progression of cancer, and the close relationship with the prognosis of the cancer patients, through extensive and in-depth research and clinical data analysis. […] Furthermore, 2,5-AM may reverse the malignant phenotypes of AML cells by synergizing with conventional chemotherapeutic cytarabine or glucose analogue 2-deoxy-glucose (2-DG). […] Moreover, 2,5-AM and cytarabine in AML mice also have a significant synergistic effect. Through the above work, the present inventors have determined the administration of 2,5-AM to AML, pancreatic cancer, and colorectal cancer, including the dosage, the route of administration and the duration of administration; and the combined use of 2,5-AM and conventional chemotherapeutic agents or 2-DG methods for cancer treatment.

[5] = 6 mM fructose or 6 mM fructose+0.75 mM glucose
[6] = 150 mg/kg/day intraperitoneally from day 5, compared with saline control group

OC[C@H]1O[C@H](CO)[C@@H](O)[C@@H]1O [2,5-AM, 2,5-anhydro-D-mannitol]
malignant proliferation of AML cells U937-SLC2A5 [1]: significantly inhibited | colony formation [2]: significantly inhibited | cell migration [3]: significantly inhibited | malignant proliferation of U937 (U937; [5]): significantly inhibited; also recorded: could inhibit | cell proliferation of U937 (U937; 6 mM glucose): almost unaffected | malignant proliferation of OCI-AML3 (OCI-AML3; [5]): significantly inhibited; also recorded: could inhibit | cell proliferation of OCI-AML3 (OCI-AML3; 6 mM glucose): almost unaffected | malignant proliferation of HL-60 (HL-60; [5]): significantly inhibited; also recorded: could inhibit | cell proliferation of HL-60 (HL-60; 6 mM glucose): almost unaffected | malignant proliferation of K562 (K562; [5]): significantly inhibited; also recorded: could inhibit | cell proliferation of K562 (K562; 6 mM glucose): almost unaffected | bone marrow leukemia cells [4, 6]: significantly inhibited | hemoglobin [4, 6]: significantly increased | overall survival of mice [4, 6]: significantly prolonged | peripheral blood leukemia cells [4, 6]: significantly inhibited | peripheral blood red blood cell count [4, 6]: significantly increased | peripheral white blood cells [4, 6]: significantly inhibited | platelet count [4, 6]: significantly increased | spleen enlargement [4, 6]: significantly relieved | fructose utilization by AML cells in vivo ([4]; mouse in vivo experiments): significantly inhibited | proliferation of PANC-1 (PANC-1): significantly inhibited | proliferation of CFPAC-1 (CFPAC-1): significantly inhibited | proliferation of BxPC-3 (BxPC-3): significantly inhibited | malignant proliferation of HCT-15 (HCT-15): significantly inhibited | malignant proliferation of HCT-116 (HCT-116): significantly inhibited | fructose utilization in AML cells (AML cells): blocked | fructose utilization by cancer cells (cancer cells): competitively inhibits | glucose utilization (cancer cells): little effect
